The values that follow come from ChEMBL document CHEMBL5532657, “Serendipitous discovery of Class I HDAC inhibitors from rational design of molecular glue degraders targeting HDAC” (Eur J Med Chem, 2024).

The subject of test [1] is RPMI-8226. Kind of test: Antiproliferative activity against human RPMI-8226 cells assessed as cell growth inhibition at 5 uM incubated for 48 hrs by CCK-8 assay. It counts as functional, cell-based.
Test [2] has as its target T1, Protein deacetylase HDAC6 (Homo sapiens) (UniProt Q9UBN7).
T1 sequence (whole entry): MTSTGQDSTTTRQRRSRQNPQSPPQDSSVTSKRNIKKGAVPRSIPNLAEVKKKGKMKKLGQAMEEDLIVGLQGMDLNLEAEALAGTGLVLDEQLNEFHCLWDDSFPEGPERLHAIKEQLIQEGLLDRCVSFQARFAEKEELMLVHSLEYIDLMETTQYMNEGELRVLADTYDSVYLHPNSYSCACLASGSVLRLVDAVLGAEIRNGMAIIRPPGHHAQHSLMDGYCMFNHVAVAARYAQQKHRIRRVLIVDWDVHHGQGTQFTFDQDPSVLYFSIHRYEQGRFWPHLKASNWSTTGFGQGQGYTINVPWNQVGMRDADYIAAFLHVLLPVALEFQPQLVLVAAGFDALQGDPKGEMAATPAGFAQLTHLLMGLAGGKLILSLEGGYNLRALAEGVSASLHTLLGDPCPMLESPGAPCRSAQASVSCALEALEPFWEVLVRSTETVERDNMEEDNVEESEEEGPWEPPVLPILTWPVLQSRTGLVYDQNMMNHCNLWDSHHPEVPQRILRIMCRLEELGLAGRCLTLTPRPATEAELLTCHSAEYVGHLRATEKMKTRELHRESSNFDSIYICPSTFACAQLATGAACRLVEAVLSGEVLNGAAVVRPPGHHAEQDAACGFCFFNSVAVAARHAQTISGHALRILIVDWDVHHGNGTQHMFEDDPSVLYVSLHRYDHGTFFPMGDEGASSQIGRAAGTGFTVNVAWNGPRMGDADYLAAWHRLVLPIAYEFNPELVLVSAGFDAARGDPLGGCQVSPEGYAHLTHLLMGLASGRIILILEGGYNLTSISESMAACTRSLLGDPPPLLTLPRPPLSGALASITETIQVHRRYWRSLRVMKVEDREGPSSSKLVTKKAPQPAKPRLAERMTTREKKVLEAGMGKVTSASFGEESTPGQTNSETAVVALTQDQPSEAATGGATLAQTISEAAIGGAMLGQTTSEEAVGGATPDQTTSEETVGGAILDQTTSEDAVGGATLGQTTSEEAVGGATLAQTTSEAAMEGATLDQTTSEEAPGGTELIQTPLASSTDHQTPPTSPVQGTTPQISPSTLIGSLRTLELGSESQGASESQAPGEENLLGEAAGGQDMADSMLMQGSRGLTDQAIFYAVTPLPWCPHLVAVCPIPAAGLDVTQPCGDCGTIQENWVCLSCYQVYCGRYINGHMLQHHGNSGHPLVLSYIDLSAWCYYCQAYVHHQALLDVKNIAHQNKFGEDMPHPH
Kind of test: Inhibition of HDAC6 in human RS4-11 cells assessed as upregulation of alpha-tubulin acetylation at 1 to 10 uM by Western blot assay. It counts as cell-based. The following applies: dose 1-10 µM. For orientation: In western blotting, separated proteins are transferred to a membrane and probed.

Test [3] concerns the target Histone deacetylase 1 (Homo sapiens, UniProt Q13547). The experiment in a line: Binding affinity to HDAC1 (unknown origin).
Test [4] relates to HeLa. Kind of test: Antiproliferative activity against human HeLa cells assessed as cell growth inhibition at 5 uM incubated for 48 hrs by CCK-8 assay. The class given is functional, cell-based. For orientation: Tetrazolium dyes change colour on reduction, which living cells bring about.
Test [5] has as its target Histone deacetylase 4 (Homo sapiens, UniProt P56524). Kind of test: Inhibition of HDAC4 in human HeLa cells nuclear extract using BocLys(acetyl)-AMC as substrate incubated for 1 hr by fluorescence plate reader analysis. The class given is subcellular, Nucleus.
Test [6] relates to U-266. Kind of test: Antiproliferative activity against human U-266 cells assessed as cell growth inhibition incubated for 48 hrs by CCK-8 assay. It counts as functional, cell-based. As to conditions: U-266, 48 h.
Test [7] has as its system RS4-11. The experiment in a line: Induction of apoptosis in human RS4-11 cells assessed as upregulation of p21 at 1 to 10 uM. It counts as functional, cell-based. The following applies: dose 1-10 µM.
Test [8] has as its system U-266. The experiment in a line: Antiproliferative activity against human U-266 cells assessed as cell growth inhibition at 5 uM incubated for 48 hrs by CCK-8 assay. It counts as functional, cell-based.
For test [9], the system named is K562. Kind of test: Antiproliferative activity against human K562 cells assessed as cell growth inhibition incubated for 48 hrs by CCK-8 assay. The class given is functional, cell-based. The following applies: K562, 48 h.
In test [10] the test system is RS4-11. Kind of test: Induction of apoptosis in human RS4-11 cells assessed as cleaved caspase-9 release at 1 to 10 uM. It counts as functional, cell-based. As to conditions: dose 1-10 µM.
Test [11] concerns the target Histone deacetylase 2 (Homo sapiens, UniProt Q92769). Kind of test: Inhibition of HDAC2 in human HeLa cells nuclear extract using BocLys(acetyl)-AMC as substrate incubated for 1 hr by fluorescence plate reader analysis. It counts as subcellular, Nucleus.
Test [12] has as its target T2, Histone deacetylase 7 (Homo sapiens, UniProt Q8WUI4).
T2 sequence (Q8WUI4 whole entry): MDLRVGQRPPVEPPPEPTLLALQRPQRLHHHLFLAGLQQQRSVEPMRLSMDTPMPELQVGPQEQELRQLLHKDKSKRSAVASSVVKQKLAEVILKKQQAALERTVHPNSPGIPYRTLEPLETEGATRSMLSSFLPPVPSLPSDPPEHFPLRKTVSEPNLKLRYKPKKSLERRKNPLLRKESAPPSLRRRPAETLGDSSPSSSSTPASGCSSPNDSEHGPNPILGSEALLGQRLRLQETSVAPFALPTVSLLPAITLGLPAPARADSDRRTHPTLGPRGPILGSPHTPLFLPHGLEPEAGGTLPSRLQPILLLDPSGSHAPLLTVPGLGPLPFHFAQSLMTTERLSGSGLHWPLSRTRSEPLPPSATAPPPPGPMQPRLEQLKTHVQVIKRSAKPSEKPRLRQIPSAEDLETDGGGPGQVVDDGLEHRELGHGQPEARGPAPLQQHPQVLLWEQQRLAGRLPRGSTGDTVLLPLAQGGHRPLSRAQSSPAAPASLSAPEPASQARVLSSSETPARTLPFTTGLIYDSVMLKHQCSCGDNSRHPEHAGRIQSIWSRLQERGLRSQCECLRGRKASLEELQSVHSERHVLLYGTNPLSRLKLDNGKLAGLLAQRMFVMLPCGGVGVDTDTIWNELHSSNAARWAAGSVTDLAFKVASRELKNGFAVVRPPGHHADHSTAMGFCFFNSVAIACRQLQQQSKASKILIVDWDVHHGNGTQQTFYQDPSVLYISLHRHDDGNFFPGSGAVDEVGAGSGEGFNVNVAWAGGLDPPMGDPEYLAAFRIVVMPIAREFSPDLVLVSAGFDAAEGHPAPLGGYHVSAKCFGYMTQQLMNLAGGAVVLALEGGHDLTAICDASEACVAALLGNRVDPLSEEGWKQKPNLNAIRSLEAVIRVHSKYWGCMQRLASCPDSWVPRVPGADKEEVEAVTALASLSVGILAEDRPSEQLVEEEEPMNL
The experiment in a line: Inhibition of HDAC7 in human HeLa cells nuclear extract using BocLys(acetyl)-AMC as substrate incubated for 1 hr by fluorescence plate reader analysis. It counts as subcellular, Nucleus.

The target of test [13] is T1, Protein deacetylase HDAC6 (Homo sapiens). Kind of test: Induction of HDAC6 degradation in human RS4-11 cells at 0.5 to 10 uM incubated for 12 hrs by Western blotting analysis. It counts as cell-based. The following applies: dose 0.5-10 µM.
The subject of test [14] is RS4-11. Kind of test: Induction of apoptosis in human RS4-11 cells after 48 hrs by Annexin V-FITC/PI staining based flow cytometry analysis. It counts as functional, cell-based. As to conditions: dose 1-10 µM. (In flow cytometry, cells or beads pass a laser one at a time.)

For orientation: Kd means the constant that tells how readily two partners part at equilibrium. As a reminder, the IC50 is the concentration at which inhibition is half-maximal.

Active and inactive are the calls of the source. The calls are words filed in the database; no cut-off is given here. Some results are limits rather than exact numbers.

Sequence of Histone deacetylase 1 (Q13547 whole entry): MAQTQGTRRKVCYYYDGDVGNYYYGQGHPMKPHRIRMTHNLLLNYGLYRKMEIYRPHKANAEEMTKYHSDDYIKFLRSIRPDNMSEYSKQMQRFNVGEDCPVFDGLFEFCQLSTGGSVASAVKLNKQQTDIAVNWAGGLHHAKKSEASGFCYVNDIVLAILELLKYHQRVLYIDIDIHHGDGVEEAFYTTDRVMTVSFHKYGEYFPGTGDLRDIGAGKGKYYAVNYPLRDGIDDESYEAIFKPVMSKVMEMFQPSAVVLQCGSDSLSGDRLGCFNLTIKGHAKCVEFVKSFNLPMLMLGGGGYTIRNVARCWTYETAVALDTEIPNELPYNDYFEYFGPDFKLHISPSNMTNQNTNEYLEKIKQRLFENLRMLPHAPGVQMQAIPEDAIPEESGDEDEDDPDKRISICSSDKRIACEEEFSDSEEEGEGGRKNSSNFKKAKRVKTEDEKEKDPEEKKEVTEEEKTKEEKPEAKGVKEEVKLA
Sequence of Histone deacetylase 4 (P56524 whole entry): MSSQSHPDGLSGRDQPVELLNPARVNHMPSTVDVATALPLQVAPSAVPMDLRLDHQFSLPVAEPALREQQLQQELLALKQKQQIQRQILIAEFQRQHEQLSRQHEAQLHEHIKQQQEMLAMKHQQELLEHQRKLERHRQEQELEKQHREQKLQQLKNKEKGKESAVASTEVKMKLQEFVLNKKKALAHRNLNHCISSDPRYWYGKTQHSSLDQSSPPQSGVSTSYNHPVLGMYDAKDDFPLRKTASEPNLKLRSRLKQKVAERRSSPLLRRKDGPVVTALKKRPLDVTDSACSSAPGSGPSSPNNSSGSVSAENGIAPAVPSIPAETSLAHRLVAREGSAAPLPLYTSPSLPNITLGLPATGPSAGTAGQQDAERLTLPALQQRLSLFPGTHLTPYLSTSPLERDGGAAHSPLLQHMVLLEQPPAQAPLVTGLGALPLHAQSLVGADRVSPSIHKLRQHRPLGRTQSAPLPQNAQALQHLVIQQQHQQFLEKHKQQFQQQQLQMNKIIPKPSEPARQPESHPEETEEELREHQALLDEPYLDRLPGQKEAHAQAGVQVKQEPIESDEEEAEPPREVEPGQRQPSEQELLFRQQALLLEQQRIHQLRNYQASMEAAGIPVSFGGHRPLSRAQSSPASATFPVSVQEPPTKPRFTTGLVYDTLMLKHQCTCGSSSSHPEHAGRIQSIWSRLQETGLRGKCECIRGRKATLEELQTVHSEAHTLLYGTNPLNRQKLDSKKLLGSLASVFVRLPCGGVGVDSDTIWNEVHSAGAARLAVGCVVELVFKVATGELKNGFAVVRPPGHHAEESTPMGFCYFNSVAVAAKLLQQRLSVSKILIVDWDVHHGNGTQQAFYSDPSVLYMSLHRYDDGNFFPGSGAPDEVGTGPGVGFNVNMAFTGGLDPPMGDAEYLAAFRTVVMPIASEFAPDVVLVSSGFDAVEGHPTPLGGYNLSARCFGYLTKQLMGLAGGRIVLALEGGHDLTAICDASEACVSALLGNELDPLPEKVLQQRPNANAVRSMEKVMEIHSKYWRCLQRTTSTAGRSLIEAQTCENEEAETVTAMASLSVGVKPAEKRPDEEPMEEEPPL
Sequence of Histone deacetylase 2 (Q92769 whole entry): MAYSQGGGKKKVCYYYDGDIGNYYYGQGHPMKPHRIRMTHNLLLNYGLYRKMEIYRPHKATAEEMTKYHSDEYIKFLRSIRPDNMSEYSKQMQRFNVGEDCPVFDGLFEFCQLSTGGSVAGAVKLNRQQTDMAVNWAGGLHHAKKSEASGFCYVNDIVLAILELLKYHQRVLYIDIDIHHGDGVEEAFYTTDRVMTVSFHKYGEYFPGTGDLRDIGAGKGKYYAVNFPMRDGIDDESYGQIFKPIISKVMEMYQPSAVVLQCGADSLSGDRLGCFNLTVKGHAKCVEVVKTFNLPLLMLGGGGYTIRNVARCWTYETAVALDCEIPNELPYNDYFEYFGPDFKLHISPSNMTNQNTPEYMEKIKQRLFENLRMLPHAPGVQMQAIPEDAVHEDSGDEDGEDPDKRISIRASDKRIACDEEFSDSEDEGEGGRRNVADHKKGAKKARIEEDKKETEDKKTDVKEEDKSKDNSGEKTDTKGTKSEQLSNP

On to `Nc1ccccc1NC(=O)c1ccc(CNc2cccc3c2C(=O)N(C2CCC(=O)NC2=O)C3=O)cc1` (stereo not drawn), for which the outcome in [1], in test [7], in [8] and in [10] was Active. The outcome in [2], in [4] and in test [13] was inactive. In test [3], this compound displayed a dissociation constant (Kd) of 41.3 µM. The half-inhibitory concentration (IC50) was greater than 2 µM in test [5]; 4.89 µM in test [6]; 5.54 µM in [9]; 0.379 µM in test [11]; greater than 2 µM in [12]. Besides, the Activity result in [14] is “Dose-Dependent Effect”.
`Nc1cc(F)ccc1NC(=O)c1ccc(CNc2cccc3c2C(=O)N(C2CCC(=O)NC2=O)C3=O)cc1` (stereo not drawn): the result in [1], in test [7], in test [8] and in test [10] was Active. The outcome in test [2], in test [4] and in [13] was inactive. Further, in test [3], binding was put at a Kd of 16.7 µM. Moreover, the IC50 in [5] is greater than 2 µM; in test [6] it was 2.94 µM; in [9], 5.35 µM; in test [11], 0.434 µM; in [12], greater than 2 µM. Also, the Activity result in test [14] was “Dose-Dependent Effect”.
